Experimental data: article PMC8658022, “Towards Property Profiling: SYNTHESIS and SAR Probing of New Tetracyclic Diazaphenothiazine Analogues” (International Journal of Molecular Sciences, 2021)
In brackets after ≈: the same amount, converted by molar mass.

What was measured:
[1] = experimentally determined lipophilicity (logPTLC); assay type: physicochemical; conditions: thin-layer chromatography (TLC)
From the text: In order to examine the lipophilic profile of the investigated compounds, the empirically determined logPTLC parameters (see Table 1) were compared with the theoretically approximated lipophilicity coefficients (clogP) using an ensemble of in silico predictors, e.g., clogP, Molinspiration, Osiris, HyperChem 7.0, Sybyl-X, MarvinSketch 15, ACD/ChemSketch 2015, Dragon 6.0, Kowwin, XlogP3, ChemDraw and ACD/Percepta programs. Subsequently, the deduced clogP parameters were cross-compared with the experimental logPTLC and inter-correlated with each other as presented in Figure 5. A good correlation was obtained (r = 0.94) for the MarvinSketch-made clogP values and the empirical logPTLC was recorded, respectively. […] A quite high inter-correlation was observed among the programs for lipophilicity specification. Obviously, some variations in clogP values resulted from different in silico algorithms (atom/fragment- or descriptor-based) implemented in the programs and/or training data employed in the training step [33].

[2] = tested on: A549 (human lung carcinoma); assay: WST-1 cell proliferation assay, A549; assay type: cell-based; conditions: mean ± std
Method: (§1) Compounds were evaluated for their antiproliferative activity using […] cultured cell lines: A549 (human lung carcinoma, ATCC, Manassas, VA, USA), SNB-19 (human glioblastoma, DSMZ, German Collection of Microorganisms and Cell Cultures), T-47D (human breast cancer, ATCC, Manassas, VA, USA) and NHDF (normal human dermal fibroblasts, ATCC, Manassas, VA, USA). The cultured cells were kept at 37 °C and 5% CO2. The cells were seeded (1 × 10^4 cells/well/100 μL DMEM supplemented with 10% FCS and streptomycin and penicillin) using 96-well plates (Corning). Cells were counted in a hemocytometer (Burker chamber) using a phase contrast Olympus IX50 microscope equipped with Sony SSC-DC58 AP camera and Olympus DP10 digital camera.
(§2) The antiproliferative effect of the compounds exerted on cancer and normal cells was determined using the Cell Proliferation Reagent WST-1 assay (Roche Molecular Biochemicals Mannheim, Germany). This assay is based on a colorimetric method using the enzymatic ability of viable cells to cause the bright red-colored stable tetrazolium monosodium salt [2-(4-iodophenyl)-3-(4-nitrophenyl)-5-(2,4-disulfophenyl)–2H-tetra-zolium] to transform into the dark red-colored soluble formazan. […] An increase in the amount of formazan dye formed correlated with the number of metabolically active cells in the culture. The formazan dye produced by metabolically active cells was quantified by absorbance reading at appropriate wavelengths. The examined cells were exposed to the tested compounds (1 mg/mL DMSO stock) for 72 h at various concentrations (0.1 μg/mL–100 μg/mL). The control was performed in order to eliminate the DMSO effect at the concentration used. Cell cultures were incubated with WST-1 (10 μL) for 1 h. The absorbance of the samples was measured against a background control at 450 nm using a microplate reader with a reference wavelength at 600 nm. The obtained results are expressed as the means of at least two independent experiments performed in triplicate. The antiproliferative activity of the tested compounds were compared to cisplatinum. The values of IC50 (a concentration of a compound that is required for 50% inhibition) were calculated from the dose-response relationship with respect to control.

[3] = tested on: SNB-19 (human glioblastoma); assay: WST-1 cell proliferation assay, SNB-19; assay type: cell-based; conditions: mean ± std
Method: as §1, §2

[4] = tested on: T47D (human breast cancer); assay: WST-1 cell proliferation assay, T47D; assay type: cell-based; conditions: 72 h exposure, mean ± std
Method: as §1, §2

[5] = tested on: NHDF (normal human dermal fibroblasts); assay: WST-1 cell proliferation assay, NHDF normal cells; assay type: cell-based; conditions: normal cell line, 72 h exposure, mean ± std
Method: as §1, §2

[6] = tested on: Staphylococcus aureus ATCC 29213; assay: broth dilution micro-method MIC, S. aureus ATCC 29213; assay type: cell-based; conditions: ATCC29213, 24 h, 37 °C
Method: (§3) The synthesized compounds were evaluated for in vitro antibacterial activity against representatives of multidrug-resistant bacteria and clinical isolates of methicillin-resistant Staphylococcus aureus (MRSA) 63718, SA 630, and SA 3202 that were obtained from the National Institute of Public Health (Prague, Czech Republic). S. aureus ATCC 29213 was used as a reference and quality control strain. Ampicillin (Sigma, St. Louis, MO, USA) was employed as the standard. Prior to testing, each strain was passaged onto nutrient agar (Oxoid, Basingstoke, UK) with 5% of bovine blood, and bacterial inocula were prepared by suspending a small portion of a bacterial colony in sterile phosphate-buffered saline (pH 7.2–7.3). The cell density was adjusted to 0.5 McFarland units using a densitometer (Densi-La-Meter, LIAP, Riga, Latvia). This inoculum was diluted to reach the final concentration of bacterial cells 5 × 10^5 CFU/mL in the wells. […] The final concentrations of the evaluated compounds ranged from 256 to 0.008 μg/mL. The broth dilution micro-method, modified according to the NCCLS (National Committee for Clinical Laboratory Standards) guidelines in Mueller–Hinton (MH) broth, was used to determine the minimum inhibitory concentration (MIC). Drug-free controls, sterility controls, and controls consisting of MH broth and DMSO alone were included. The determination of results was performed visually after 24 h of static incubation in the darkness at 37 °C in an aerobic atmosphere. Each experiment was repeated at least three times.

[7] = tested on: methicillin-resistant S. aureus 63718; assay: broth dilution micro-method MIC, MRSA 63718; assay type: cell-based; conditions: Staphylococcus aureus, clinical isolate, 24 h, 37 °C
Method: as §3

[8] = tested on: methicillin-resistant S. aureus SA 630; assay: broth dilution micro-method MIC, MRSA SA 630; assay type: cell-based; conditions: Staphylococcus aureus, clinical isolate, 24 h, 37 °C
Method: as §3

[9] = tested on: methicillin-resistant S. aureus SA 3202; assay: broth dilution micro-method MIC, MRSA SA 3202; assay type: cell-based; conditions: Staphylococcus aureus, clinical isolate, 24 h, 37 °C
Method: as §3

[10] = tested on: MRSA isolates; assay: broth dilution micro-method MIC, MRSA isolates (pooled statement); assay type: cell-based; conditions: Staphylococcus aureus; range over three MRSA isolates and both compounds; read-out: MICs against MRSA isolates
Method: as §3, with “The determination of results was performed visually after 24 h of static incubation in the darkness at 37 °C in an aerobic atmosphere. Each experiment was repeated at least three times.” left out

[11] = Homo sapiens, A549, 72 h exposure
[12] = Homo sapiens, SNB-19, 72 h exposure

Structure (SMILES) | chromatographic logP [1] | IC50 [2, 11] [µM] | IC50 [3, 12] [µM] | IC50 ([4]; Homo sapiens, T47D) [µM] | IC50 ([5]; Homo sapiens, NHDF) [µM] | MIC [6] [µM] | MIC [7] [µM] | MIC [8] [µM] | MIC [9] [µM] | IC50 ([2]; 72 h exposure) [µM] | IC50 ([3]; 72 h exposure) [µM] | IC50 [4] [µM] | IC50 [5] [µM] | MIC [10] [µM]
C[n+]1cc2c(c3ccccc31)Nc1ccc(Br)nc1S2 [3b, 9-bromo-5-methyl-12H-quino[3,4-b]pyrido[5,6-e][1,4]thiazinium chloride] | 4.8 | 23.8 ± 1.7 | 4.1 ± 0.3 | 5.2 ± 0.4 | 0.8 ± 0.05 | 337 | 337 | 337 | 337 |  |  |  |  | 
C[n+]1cc2c(c3ccccc31)Nc1cnccc1S2 [4a, 5-methyl-5H-qujino[3,4-b]pyrido[3,4-e][1,4]thiazinium chloride] | 2.93 | 30.1 ± 3.4 | 18.7 ± 1.2 | 36.8 ± 2.1 | 7.5 ± 0.2 | 424 | 424 | 424 | 424 |  |  |  |  | 
Cc1cc(F)nc2c1Nc1c(c[n+](C)c3ccccc13)S2 [3h, 9-fluoro-5,11-dimethyl-12H-quino[3,4-b]pyrido[5,6-e][1,4]thiazinium chloride] | 5.72 | 15.4 ± 1 | 126 ± 14.8 | 47.7 ± 2.8 | 28.5 ± 4 | 383 | 383 | 383 | 383 |  |  |  |  | 
Cc1ccnc2c1Nc1c(c[n+](C)c3ccccc13)S2 [3i, 5,11-dimethyl-12H-quino[3,4-b]pyrido[5,6-e][1,4]thiazinium chloride] | 4.17 | 69.3 ± 5.3 | 22.1 ± 1.5 | 18.9 ± 1.4 | 0.4 ± 0.07 | 203 | 203 | 101 | 203 |  |  |  |  | 
N.N.[Cl][Pt][Cl] [cisplatinum, reference compound] |  |  |  |  |  |  |  |  |  | 3 ± 0.2 | 16.7 ± 1.3 | 9 ± 0.7 | 29.9 ± 3.3 | 
C[n+]1cc2c(c3ccccc31)Nc1ccc(F)nc1S2 [3e, 9-fluoro-5-methyl-12H-quino[3,4-b]pyrido[5,6-e][1,4]thiazinium chloride] | 4.24 | 2.1 ± 0.35 | 0.4 ± 0.08 | 2.8 ± 0.35 | 1.1 ± 0.14 | 50.2 | 25.1 | 12.5 | 25.1 |  |  |  |  | 12.5 to 42.1
C[n+]1cc2c(c3ccccc31)Nc1ccc(Cl)nc1S2 [3d, 9-chloro-5-methyl-12H-quino[3,4-b]pyrido[5,6-e][1,4]thiazinium chloride] | 4.62 | 2 ± 0.3 | 1.3 ± 0.1 | 2.3 ± 0.3 | 7.7 ± 0.5 | 381 | 381 | 381 | 381 |  |  |  |  | 
C[n+]1cc2c(c3ccccc31)Nc1cc(Br)cnc1S2 [3c, 10-bromo-5-methyl-12H-quino[3,4-b]pyrido[5,6-e][1,4]thiazinium chloride] | 4.57 | 20.6 ± 1.2 | 3.4 ± 0.2 | 12.2 ± 1.7 | 11 ± 1.4 | 42.1 | 42.1 | 21.1 | 42.1 |  |  |  |  | 12.5 to 42.1
C[n+]1cc2c(c3ccccc31)Nc1cccnc1S2 [3a, 5-methyl-12H-quino[3,4-b]pyrido[5,6-e][1,4]thiazinium chloride] | 3.53 | 70.3 ± 9.8 | 132 ± 11.6 | 46.2 ± 7.1 | 21.1 ± 1.5 | 212 | 212 | 106 | 212 |  |  |  |  | 
C[n+]1cc2c(c3ccccc31)Nc1ccc(I)nc1S2 [3f, 9-iodo-5-methyl-12H-quino[3,4-b]pyrido[5,6-e][1,4]thiazinium chloride] | 5.09 | 115 ± 10.7 | 62.5 ± 6.6 | 128 ± 18.2 | 97.4 ± 6.2 | 299 | 299 | 299 | 299 |  |  |  |  | 
CC1(C)S[C@@H]2[C@H](NC(=O)[C@H](N)c3ccccc3)C(=O)N2[C@H]1C(=O)O [AMP, Ampicillin, reference compound] |  |  |  |  |  | 5.72 (≈ 2 µg/mL) | 45.8 (≈ 16 µg/mL) | 45.8 (≈ 16 µg/mL) | 45.8 (≈ 16 µg/mL) |  |  |  |  | 
Cc1cc(Cl)nc2c1Nc1c(c[n+](C)c3ccccc13)S2 [3g, 9-chloro-5,11-dimethyl-12H-quino[3,4-b]pyrido[5,6-e][1,4]thiazinium chloride] | 5.66 | 20 ± 1.6 | 3.5 ± 0.2 | 26.7 ± 1.6 | 3.8 ± 0.3 | > 731 | > 731 | > 731 | > 731 |  |  |  |  | 
COc1ccc2c(n1)Sc1c[n+](C)c3ccccc3c1N2 [3j, 9-methoxy-5-methyl-12H-quino[3,4-b]pyrido[5,6-e][1,4]thiazinium chloride] | 4.2 | 1.7 ± 0.1 | 6.1 ± 0.4 | 8.1 ± 1 | 2 ± 0.3 | 193 | 193 | 96 | 193 |  |  |  |  | 
